This note sets out measurements from article PMC6155332, “Antimalarials with Benzothiophene Moieties as Aminoquinoline Partners” (Molecules : A Journal of Synthetic Chemistry and Natural …, 2017).

The test system of assay [1] is P. falciparum D6 (CQ susceptible (CQS) strain). Briefly: Malaria SYBR Green Fluorescence Assay, D6 strain. It counts as cell-based. The following applies: Plasmodium falciparum; CQ susceptible African D6 clone; read-out: In Vitro Antimalarial Activity (P. falciparum, IC50, nM) D6.
Assay [2] deals with HepG2 (hepatocellular carcinoma) cell line. Description: Compound toxicity in HepG2 cell line. Particulars: for IC50: Homo sapiens, HepG2, hepatocellular carcinoma cells; for SI HepG2/D6 (selectivity index): IC50 HepG2 / IC50 D6. It counts as cell-based, human. Here is the method:
To investigate possible toxicity issues, the synthesized compounds were evaluated in vitro against a human hepatoma cell line (HepG2).
Synthesized aminoquinolines were screened in vitro against P. falciparum strains: CQ and MFQ susceptible strain D6 (clone of Sierra Leone/UNC isolate), CQ resistant but MFQ susceptible strain W2 (clone of Indochina isolate), and CQ and MFQ resistant strain TM91C235 (clone of South East Asian isolate) using the Malaria SYBR Green Fluorescence Assay. Full method details are given in Supplementary Materials I. Assessment of compound toxicity in a HepG2 (hepatocellular carcinoma) cell line followed the protocol described in Ref. [40].

The subject of assay [3] is P. falciparum TM91C235 (Thailand, multidrug-resistant (MDR) strain). Description: Malaria SYBR Green Fluorescence Assay, TM91C235 strain. Format: cell-based. Particulars: Plasmodium falciparum, read-out: In Vitro Antimalarial Activity (P. falciparum, IC50, nM) C235.
Assay [4] has as its system P. falciparum W2 (CQ resistant (CQR) strain). Briefly: microbe, parasite or virus in culture. It counts as cell-based, Plasmodium falciparum. Particulars: for RI W2/D6 (resistance index): IC50 W2 / IC50 D6; for IC50: Plasmodium falciparum, W2, read-out: In Vitro Antimalarial Activity (P. falciparum, IC50, nM) W2.
A further assay relates to P. berghei (ANKA). Briefly: Modified Thompson test, P. berghei mouse efficacy. It counts as in vivo, Plasmodium berghei. Here is the method: In a separate host toxicity study, benzothiophene 25 was subjected to in vivo toxicity evaluation. […]
The P. berghei (ANKA) mouse efficacy tests were conducted using a modified version of the Thompson test. Groups of five mice were inoculated intraperitoneally with erythrocytes infected with P. berghei on day 0. Drugs were suspended in 0.5% hydroxyethylcellulose-0.1% Tween 80 and administered orally once a day beginning on day 3 post infection. […] Cure was defined as survival (with no parasitemia) until day 31 post-treatment. Parasitemia was determined by thin-blood Giemsa-stained smears prepared from mice tail blood of each animal on days 0, 3, 6, 10, 13, 17, 20, 24, 27, and 31 (postinfection). The slides were examined under a light microscope.

Where [5] appears, read: infected mice, 160 mg/kg/day p.o., days 3–5 postinfection.

What is called IC50 is the point on the concentration scale where inhibition reaches its midpoint. As to `N#Cc1ccc(-c2ccc(-c3ccc(CNCCCCCNc4ccnc5cc(Cl)ccc45)cc3)s2)cc1` [Compound 40], the IC50 in assay [1] is 80 nM; in assay [2], 6700 nM; in assay [3] it was 54 nM; in assay [4], 41 nM. Also, the “SI HepG2/D6 (selectivity index)” value in assay [2] came out at 84. For the same molecule, the “RI W2/D6 (resistance index)” value in assay [4] came to 0.5.
Take `Fc1ccc2scc(CNCCCCNc3ccnc4ccccc34)c2c1` [Compound 13]: the IC50 was 16 nM in assay [1], 2730 nM in assay [2], 177 nM in assay [3] and 201 nM in assay [4]. The “SI HepG2/D6 (selectivity index)” value in assay [2] was found to be 172. In addition, the “RI W2/D6 (resistance index)” value in assay [4] is given as 12.6.
With `Fc1ccc2scc(-c3ccc(CNCCCCCCNc4ccnc5ccccc45)cc3)c2c1` [Compound 24], the IC50 in assay [1] is 60 nM; in assay [2] it was 2230 nM; in assay [3], 242 nM; in assay [4], 277 nM. In assay [2], the “SI HepG2/D6 (selectivity index)” value is given as 37. The “RI W2/D6 (resistance index)” value in assay [4] is on record as 4.6.
Turning to `CCN(CC)CCCC(C)Nc1ccnc2cc(Cl)ccc12` (stereo not drawn) [CQ, chloroquine, reference compound], the IC50 in assay [1] is 15 nM; in assay [3], 206 nM; in assay [4] it was 595 nM. Further, the “Parasitemia D6-D31” value in the assay on P. berghei (ANKA) (160 mg/kg/day p.o. days 3–5, days 6–31) was 5 mice negative. For the same molecule, in the assay on P. berghei (ANKA) (setting [5]), the “Mean Survival Time (MST, Days)” value is over 31 days. Moreover, in the assay on P. berghei (ANKA) (setting [5]), the “Mice Alive on Day 31” value is reported as 5/5.
Turning to `CC(CCCNCc1ccc(-c2csc3ccc(F)cc23)cc1)Nc1ccnc2ccccc12` (stereo not drawn) [Compound 26], the IC50 came to 36 nM in assay [1], 2340 nM in assay [2], 45 nM in assay [3] and 55 nM in assay [4]. In assay [2], the “SI HepG2/D6 (selectivity index)” value was determined as 65. The “RI W2/D6 (resistance index)” value in assay [4] is listed as 1.5.
For `N#Cc1ccc(-c2ccc(-c3ccc(CNCCCCNc4ccnc5ccccc45)cc3)s2)cc1` [Compound 43], the IC50 in assay [1] was found to be 4 nM; in assay [2], 8150 nM; in assay [3] it was 34 nM; in assay [4], 106 nM. In addition, in assay [2], the “SI HepG2/D6 (selectivity index)” value is 2038. Further, the “RI W2/D6 (resistance index)” value in assay [4] was 26.
On to `N#Cc1ccc(-c2ccc(-c3ccc(CNCCCCCCNc4ccnc5ccccc45)cc3)s2)cc1` [Compound 44], for which the IC50 in assay [1] was determined as 101 nM; in assay [2] it was 4080 nM; in assay [3], 54 nM; in assay [4], 74 nM. For the same molecule, in assay [2], the “SI HepG2/D6 (selectivity index)” value is on record as 40. Moreover, in assay [4], the “RI W2/D6 (resistance index)” value is recorded as 0.7.
In the case of `OC(c1cc(C(F)(F)F)nc2c(C(F)(F)F)cccc12)C1CCCCN1` (stereo not drawn) [MFQ, mefloquine, reference compound], the values for the IC50 in assay [1], in assay [3] and in assay [4] were 23 nM, 55 nM and 7 nM, respectively. In addition, the “RI W2/D6 (resistance index)” value in assay [4] is recorded as 0.3.
Turning to `N#Cc1ccc2scc(-c3ccc(CNCCCCNc4ccnc5ccccc45)cc3)c2c1` [Compound 28], the IC50 stood at 6 nM in assay [1], 2580 nM in assay [2], 129 nM in assay [3] and 188 nM in assay [4]. Further, the “SI HepG2/D6 (selectivity index)” value in assay [2] amounted to 401. The “RI W2/D6 (resistance index)” value in assay [4] is 31.3.
Consider `N#Cc1ccc(-c2ccc(-c3ccc(CNCCCNc4ccnc5cc(Cl)ccc45)cc3)s2)cc1` [Compound 38], for which the IC50 was determined as 84 nM in assay [1], 2560 nM in assay [2], 43 nM in assay [3] and 20 nM in assay [4]. Moreover, the “SI HepG2/D6 (selectivity index)” value in assay [2] worked out at 30. For the same molecule, the “RI W2/D6 (resistance index)” value in assay [4] worked out at 0.2.
Consider `N#Cc1ccc(-c2ccc(-c3ccc(CNCCNc4ccnc5cc(Cl)ccc45)cc3)s2)cc1` [Compound 37], for which the IC50 in assay [1] was 49 nM; in assay [2], over 30600 nM; in assay [3] it was 60 nM; in assay [4] it was 26 nM. Also, in assay [4], the “RI W2/D6 (resistance index)” value is 0.5.
For `c1ccc2sc(CNCCCCNc3ccnc4ccccc34)cc2c1` [Compound 9], the IC50 in assay [1] turned out to be 14 nM; in assay [2], 4870 nM; in assay [3], 205 nM; in assay [4] it was 191 nM. Moreover, the “SI HepG2/D6 (selectivity index)” value in assay [2] is recorded as 339. Further, the “RI W2/D6 (resistance index)” value in assay [4] came out at 13.6.
